Results from patent US10792232B2, “Methods to deliver antifibrinolytic drugs for anti-aging results” (MURDOCK TECHNOLOGIES, LLC, priority 2016, dated 2020).
Read-outs that look alike come from different tables or passages of the source.

What was measured:
[1] = test system: mice that are bred to display skin dryness; conditions: oral, 750 mg/kg/day over 20 days; cited from earlier work
dark patches of skin = conditions: injected directly into affected area, sometimes with laser therapy, melasma patients; cited from earlier work
surface of the face = conditions: 1-2 ml of 10% solution applied daily to the face, over 14-21 days
Text: The present invention is based on the realization that the aging process and its physical effects on the skin and body involve the activation of a fibrinolytic process. […] The dosage of antifibrinolytic agent(s) should be less than 6 grams per day. […] A particularly advantageous manner of administration for topical delivery is by single use pre-impregnated towelettes applied to the area of the skin to be treated.

[2] = cited from earlier work

NC[C@H]1CC[C@H](C(=O)O)CC1 [tranexamic acid]
effect on wrinkles caused by skin dryness [1]: amelioration effect on wrinkles specifically caused by skin dryness
effect on dark patches of skin (dark patches of skin): lighten dark patches of skin
lines and wrinkles (surface of the face): lines and wrinkles are fewer and less pronounced
overall skin tone (surface of the face): improved
dose shown to induce seizures ([2]; equivalent of 80 mg/kg/day): approximately 6 grams per day
dose shown to induce seizures ([2]; in vivo): > 80 mg/kg/day
